From patent US7504095B2, “Method for obtaining precursor Z and use thereof for the production of a means for therapy of human molybdenum cofactor deficiency” (Technische Universitaet Braunschweig, priority 2004, dated 2009)

Columns and labels:
[1] = Oxidation of precursor Z to compound Z in 2x PBS buffer, UV-VIS; format: physicochemical
Experimental: (a) Oxidation of precursor Z to compound Z. (b) UV-VIS absorption spectrum of 22 μM precursor Z after 17 h incubation at room temperature in 2× PBS-Buffer (pH 6.9). The spectra were recorded and indicated in time intervals following dilution in Buffer. (c) […] of oxidation of precursor Z by recording the absorption at 350 nm from the spectra shown in (b).
In order to obtain larger amounts, we used a bacterial strain, which enriched precursor Z on the basis of a defect in the conversion to MPT. A further improvement in the yield could be achieved by over expression of the protein MoaA and MoaC, which catalyse the first step of Moco-synthesis. This leads to an approximately 5000-fold enrichment of precursor Z in comparison to wild type cells, with an average yield of 40 μg per L E. coli culture and a final concentration of 30-140 μg/ml. […] Under physiological and aerobic conditions at pH 6.9 (2×PBS buffer) a 22 μM solution of precursor Z was oxidized within 5 h completely to compound ZBe^9. The half time of precursor Z at pH 6.9 could be determined with 62±12 (FIG. 5c).

[2] = Oxidation of precursor Z in D2O/DCl on exposure to air, followed by 1H-NMR; format: physicochemical; conditions: D2O and DCl, exposed to air
Experimental: One- (1D) and two-dimensional (2D) ^1H-NMR-correlation spectra (COSY) were recorded at 300 K with a Bruker Avance DMX 600 NMR-spectrometer, which is linked to the dominating resonance of deuterium from the solvent D2O. Chemical shifts are indicated in ppm relative to the background signal of the solvent (4.80 ppm) and couplings in Hz. Precursor Z containing samples (100-200 μg) were freeze-dried and resuspended in 700 μl degassed D2O and 2 μl 36% DCl. For avoidance of oxidation, the pipette was gased for 5 minuites with nitrogen. These solutions were stable enough for recording both 1D- and 2D-COSY-spectra. Subsequent exposure of the solution to air caused the oxidation of the precursor Z to the well-described main single product, compound Z, and this reaction was monitored at regular intervals by recording 1D-^1H-spectra. Under normal conditions, this reaction is concluded after 14 days in D2O and DCl.

E. coli MPT-Synthase = E. coli MPT-Synthase (Escherichia coli, UniProt P30749); experiment: In vitro conversion of precursor Z to MPT with purified MPT-synthase; format: biochemical; conditions: double excess of MPT-synthase, HPLC formA analysis
E. coli MPT-Synthase, sequence (P30749 whole entry): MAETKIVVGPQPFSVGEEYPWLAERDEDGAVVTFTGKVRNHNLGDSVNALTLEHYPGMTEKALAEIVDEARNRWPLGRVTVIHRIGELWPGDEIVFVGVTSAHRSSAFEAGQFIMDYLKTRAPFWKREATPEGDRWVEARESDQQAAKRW
E. coli MPT-Synthase, sequence (P30748 whole entry, further chain): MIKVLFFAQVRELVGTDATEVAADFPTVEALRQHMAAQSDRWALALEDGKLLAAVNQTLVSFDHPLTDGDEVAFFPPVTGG
From the text: The biological activity of the purified precursor Z could be verified by a quantitive in vitro conversion to MPT tinder use of purified E. coli MPT-Synthase^B26 . […] In order to determine the amount of precursor Z needed for a successful reestablishment of Moco-biosynthesis in MOCS1-deficient mice, we carried out an in vitro reconstitution with various amount of precursor Z in protein-raw extract from the liver of five day old MOCS1-deficient mice carried out (FIG. 6a). In the case of the employment of 134 ng precursor Z/mg protein a near complete reestablishment of Moco-biosynthesis could be achieved, while 27 ng precursor Z led to a reconstitution of approximately 50%. The protein total concentration of the liver extract amounted to 6 mg (obtained from 50 mg total liver tissue) which necessitated a total required amount of precursor Z of 0.8 μg for each animal for complete reestablishment of the MPT-synthesis under in vitro conditions. Accordingly for an adult animal with a body weight of 20 g and an approximate mass or weight of the liver of 1 g, 16 μg precursor Z was needed for complete reestablishment, however only 3 μg for an activation of 50%. […]

[3] = system: MPT-synthesis in MOCS1-deficient liver extracts; experiment: In vitro reconstitution of MOCS1-deficient liver extract, nit-1 reconstitution assay; format: biochemical, mice
Experimental: FIG. 6: Restoration of the MPT-biosynthesis in vitro and in vivo. (a) In vitro restoration of MOCS1-deficient liver extracts with precursor Z. Protein raw extract of a five day old MOCS1^−/− were incubated (1 h) with the indicated amounts of purified precursor Z per mg protein. Restoration of MPT-synthesis was measured by means of nit-1 reconstitution assay. (b-d) Biochemical analysis of precursor Z treated MOCS1-deficient animals. The mice were twice weekly injected with increasing amounts of precursor Z, beginning with 2 μg after birth and up to 8 μg after weaning. Between the days 25-55 after birth the treatment was stopped. On day 0 (4 hours after the last injection), 1, 4 and 7 respectively, two mice were sacrificed. Two liver samples of each animal were removed and separately further processed. Each value in the figure was thus determined four times. Total-MPT inclusive Moco (b), sulphite oxidase activity (c) and xanthine dehydrogenase (d) are indicated as percentage of the corresponding wildtype value (n=4).
The biological activity of the purified precursor Z could be verified by a quantitive in vitro conversion to MPT tinder use of purified E. coli MPT-Synthase^B26 . […] In order to determine the amount of precursor Z needed for a successful reestablishment of Moco-biosynthesis in MOCS1-deficient mice, we carried out an in vitro reconstitution with various amount of precursor Z in protein-raw extract from the liver of five day old MOCS1-deficient mice carried out (FIG. 6a). In the case of the employment of 134 ng precursor Z/mg protein a near complete reestablishment of Moco-biosynthesis could be achieved, while 27 ng precursor Z led to a reconstitution of approximately 50%. The protein total concentration of the liver extract amounted to 6 mg (obtained from 50 mg total liver tissue) which necessitated a total required amount of precursor Z of 0.8 μg for each animal for complete reestablishment of the MPT-synthesis under in vitro conditions. Accordingly for an adult animal with a body weight of 20 g and an approximate mass or weight of the liver of 1 g, 16 μg precursor Z was needed for complete reestablishment, however only 3 μg for an activation of 50%. […] Although the in vitro titration experiment yielded no information regarding which part of the Moco is transmitted to the Apo-sulfhite-oxidase, the investigated or established amount of precursor Z related to the maximal capacity of the MPT-production in the liver of MOCS1-deficient mice.

MOCS1-deficient mice [4] = experiment: Lifespan and phenotype of MOCS1-/- mice injected with precursor Z into the liver; format: in vivo; conditions: for Average Lifespan: injected into the liver
Experimental: The half-life of sulphite oxidase in rat liver was determined to be 3-4 days^B27.
The lowest dose amounted to 0.2 μg precursor Z, administered every second day. […] With the administration of 1-2 μg every third day the mice achieved a greater age and were suckled until day 20-30, thereafter the MOCS1^−/ animals however appeared slower in their flight reaction and in their internalization of their environment than the corresponding control animals. This difference disappeared about day 40, after which all MOCS1^−/− animals were as agile and full of life as the control individuals. […] The injection of 2-4 μg precursor Z every third day ws found to be the most successful treatment.

MOCS1-deficient mice [5] = experiment: Open field test; format: in vivo; set-up: dose or concentration left out as unconfirmed; conditions: precursor Z every third day
MOCS1-deficient mice [6] = experiment: Light/dark box test; format: in vivo; conditions: treated MOCS1-deficient mice
Experimental: (§1) Avoidance of light was tested in the light/dark box, in which the animals were placed into the light area and the time was determined until the animals sought out the darker area. […] The results were compared with wild-type controls. The mice were sequentially introduced into all four sectors and the time was measured until the animals found and climbed onto the platform (FIG. 7). […] In a second test series, the average swim time was reduced to 20-25% of the first test both in the “knockout” mice as well as with the control animals. In a third test series, the platform was removed and the time was measured that the mice spent in the “correct” sector—the sector that previously contained the platform. Both groups spent approximately 50% of the time in the correct sector.

MOCS1-deficient mice [7] = experiment: Running wheel test; format: in vivo; conditions: 10 and 20 RPM
MOCS1-deficient mice [8] = experiment: Water labyrinth learning test; format: in vivo; conditions: first series of tests
Experimental: FIG. 7: Ability to train precursor Z-treated MOCS1-deficient mice in a water labyrinth. The values represented a cross section of six wildtype- (wt, black bars) and six precursor Z treated MOCS1-deficient mice (MOCS1 ^−/−, white bars). […] C, time (of a total of 120 seconds), spent in the correct sector (without platform), which were learned in passes A and B.
as §1

[9] = adult animal, body weight 20 g, liver 1 g

## Nc1nc2c(c(=O)[nH]1)N[C@@H]1[C@H](N2)O[C@@H]2COP(=O)(O)O[C@@H]2C1(O)O [precursor Z]
[1]; 2x PBS-Buffer pH 6.9, room temperature
  stability under physiological conditions: stable under physiological conditions
[1]; pH 6.9, 2xPBS buffer, aerobic, 22 μM, room temperature
  half time of precursor Z: 62±12
[1]; pH 6.9, 2xPBS buffer, physiological and aerobic conditions, 22 μM solution
  time to complete oxidation to compound Z: ≤ 5 h
[2]
  time until oxidation to compound Z is concluded: 14 days
E. coli MPT-Synthase
  conversion of precursor Z into MPT: almost completely
[3]; 27 ng precursor Z, liver extract of five day old MOCS1-deficient mice, 1 h
  reconstitution: approximately 50%
[3]; 134 ng precursor Z/mg protein, liver extract of five day old MOCS1-deficient mice, 1 h
  reestablishment of Moco-biosynthesis: near complete
[3]; [9]
  amount of precursor Z needed for an activation of 50%: 3 µg
  amount of precursor Z needed for complete reestablishment: 16 µg
[3]; five day old animal, 6 mg liver extract protein, in vitro conditions
  total required amount of precursor Z per animal for complete reestablishment of MPT-synthesis: 0.8 µg
MOCS1-deficient mice [4]; 0.2 μg every second day, 11 mice
  development and weight gain: developed normally
MOCS1-deficient mice [4]; 0.2 μg every second day
  Average Lifespan: 17.7 days
MOCS1-deficient mice [4]; 1 μg (prior to weaning) and 2 μg (after weaning) every third day
  Average Lifespan: 32.9 days
MOCS1-deficient mice [4]; 1 μg every third day
  Average Lifespan: 25.2 days
MOCS1-deficient mice [4]; 2 μg every second day
  Average Lifespan: 47.4 days
MOCS1-deficient mice [4]; 1-2 μg every third day
  fraction of treated animals that died between day 20 and 40: Approximately half
MOCS1-deficient mice [4]; 2-4 μg every third day
  deaths between days 40-70: no animal died
  offspring of pairings of treated animals: normally developed, healthy off-spring
MOCS1-deficient mice [4]; prior to weaning
  difference in weight, behavior or other phenotypic characteristics versus wild type or heterozygous siblings: no difference could be determined
MOCS1-deficient mice [5]
  open field: movement, learning and social behavior versus wildtype: no significant differences
MOCS1-deficient mice [6]
  light/dark box: time until seeking the darker area versus wild type: no significant difference
MOCS1-deficient mice [7]
  running wheel: limitations of movement: Limitations of movement were not shown
MOCS1-deficient mice [8]
  water labyrinth: finding the platform versus wild-type controls: more rapidly than the wild-type control animals
